# US20210346460A1, “TREATMENTS FOR COVID-19-RELATED SYSTEMIC SCLEROSIS, VASCULAR INSUFFICIENCY, DISTAL ISCHEMIA, AND RELATED DISEASE CONDITIONS” (priority 2020, published 2021)
# “Also recorded” adds a separate entry of the source. Like-named read-outs stand apart in the source and are kept apart here.
# Columns and labels:
# [1] = cited from earlier work
# [2] = system: intact nonpregnant systemic vessels; assay: PGI2 release in intact nonpregnant systemic vessels (GABA dose response curves); parameters: species or system sheep; settings: for PGI2 levels on addition of Nanomolar Ouabain: most concentrations of GABA
# Source text: In FIGS. 2A-2C, GABA dose response curves of systemic vessels in 18 day postpartum sheep are provided. These vessels are believed to be representative of non-pregnant normotensive systemic vessels. […] Accordingly, it appears that at least one of Taurine or EO (or the like) may be needed to up-regulate the GABA-a receptor to augment PGI2 levels in the presence of nanomolar ouabain, or may at least be substantially helpful to increase PGI2 levels.
# In FIG. 2C, the systemic vessels react to variable GABA in a similar manner as pregnant uterine vessels (see, e.g., FIG. 1B), but only in the presence of Ouabain.
# Accordingly, the inventor has unexpectedly discovered that Ouabain exposure may modulate the PGI2 response through interaction with the GABA-a/AT1 construct.
# [3] = system: pregnant systemic arteries; assay: PGI2 release in pregnant systemic arteries
# Source text: During experimentation between uterine vessels and systemic vessels during pregnancy, an inverse response between uterine and systemic vessels and their levels of PGI2 release was found. […] Pregnant uterine vessels, however, required GABA and angiotensin II to increase PGI2. The inventor has surmised that this mechanism is likely feto-productive in cases of hemorrhage and low blood volume during pregnancy. During these times, AII increases, dilating the uterine circuit and constricting the systemic circuit, thereby allowing the maternal blood to pass by the baby, prolonging the baby's chances of survival.
# (§1) Accordingly, as may be observed, there is an inverse relationship depending on the vascular circuit.
# (§2) With reference to FIGS. 5A and 5B, the inventor's laboratory data indicates the presence of GABA-a receptors in both systemic vessels and uterine vessel in pregnant animals. […] It may be noted that the third and last columns of FIG. 5A and the last two columns of FIG. 5B reflect competition on the GABA-a receptor between GABA and bicuculine. GABA improves PGI2 response substantially more in the absence of GABA-a receptor competition (e.g., bicuculine); and GABA with bicuculine improves PGI2 response substantially more than bicuculine alone.
# (§3) With reference to FIG. 6, the inventor's laboratory data further illustrates that when the endothelium is removed from the pregnant uterine and systemic vessels, respectively, the PGI2 release trends that had been seen in the intact vessels is reversed. As may be observed, PGI2 release in pregnant uterine vessels is reduced in the presence of AII when the endothelium is removed; inversely, PGI2 release in pregnant systemic vessels is increased in the presence of AII when the endothelium is removed.
# [4] = system: pregnant uterine arteries; assay: PGI2 release in pregnant uterine arteries
# Source text: as §1, §2, §3
# FIG. 1A illustrates an Ouabain Dose Response Curve (“ODRC”) in pregnant uterine tissue. […] This may indicate inactivity of the GABA-a/AT1 construct without Taurine. It may have been expected that substantially less PGI2 would be released without AII than with AII. […] This may indicate an active GABA-a/AT1 construct under such conditions. […] Accordingly, the inventor has surmised that non-pregnant normotensive systemic vessel behave similarly to pregnant uterine vessels when exposed to Ouabain, releasing higher levels of PGI2 in the presence of GABA and AII.
# This increase in PGI2 release in the presence of higher Ouabain may explain the EO resistance noted in pregnancy.
# Cyclooxygenase (COX) = settings: humans or rats, pharmacological blockade of COX; cited from earlier work
compound,measurement,setting,value
CCCCOC(=O)NS(=O)(=O)c1sc(CC(C)C)cc1-c1ccc(Cn2ccnc2)cc1 [C21],Blood pressure,[1]; eHTN humans,not shown to reduce blood pressure
NCCCC(=O)O [GABA],Blood pressure,[1]; normotensive patients,no effect
same,PGI2 response to GABA,"[2]; 18 day postpartum sheep systemic vessels, no EO or Taurine (FIG. 2A)",no PGI2 response
same,PGI2 release on exposure to GABA,"[3]; pregnant systemic vessels, absence of angiotensin II",increased PGI2 release
same,PGI2 release on addition of GABA,"[4]; pregnant uterine arteries, GABA alone, no AII (FIG. 5B col. 2)",insignificant effect on PGI2 release
same,PGI2 release on addition of GABA and AII,"[4]; pregnant uterine arteries, GABA with AII (FIG. 5B col. 1)",increased PGI2 release
C[C@@H]1O[C@@H](O[C@H]2C[C@@H](O)[C@]3(CO)[C@H]4[C@H](O)C[C@]5(C)[C@@H](C6=CC(=O)OC6)CC[C@]5(O)[C@@H]4CC[C@]3(O)C2)[C@H](O)[C@H](O)[C@H]1O [Ouabain],PGI2 levels on addition of Nanomolar Ouabain,"[2]; with AII, no Taurine (FIG. 2C)",significant increase in PGI2 levels
same,PGI2 levels on addition of Nanomolar Ouabain,"[2]; without AII, no Taurine (FIG. 2B)",significant increase in PGI2 levels
same,PGI2 release with increase in Ouabain,"[4]; pregnant uterine vessels, Ouabain from 10^−10 M to 10^−9 M, low taurine, GABA approx. −7 M (FIGS. 4A, 4B)",higher PGI2 release
"NCCS(=O)(=O)O [Taurine, 2-amino-ethane sulfonic acid]",Overall PGI2 release with versus without Taurine,"[4]; pregnant uterine arteries, regardless of AII presence (FIG. 1A vs 1B)",overall PGI2 release appears higher without Taurine
CC(=O)Oc1ccccc1C(=O)O [aspirin],Resting blood pressure,Cyclooxygenase (COX),does not substantially affect resting blood pressure
CN1CCc2cc3c(cc2[C@H]1[C@@H]1OC(=O)c2c1ccc1c2OCO1)OCO3 [bicuculine],PGI2 release on blocking GABA-a receptors,[3]; pregnant systemic vessels (FIG. 5A),reduced PGI2 release in both circuits
same,PGI2 release on blocking GABA-a receptors,"[4]; pregnant uterine arteries, even when additional GABA was added (FIG. 5B)",reduced PGI2 release in both circuits; also recorded: substantially reduced PGI2 release
COc1ccc2c(c1)c(CC(=O)O)c(C)n2C(=O)c1ccc(Cl)cc1 [indomethacin],Resting blood pressure,Cyclooxygenase (COX),does not substantially affect resting blood pressure
Angiotensin II [AII],PGI2 formation by presence or absence of Angiotensin II,"[2]; 18 day postpartum sheep, intact systemic vessels exposed to GABA, without Taurine or EO (FIG. 2A)",no significant PGI2 formation
same,PGI2 release on addition of AII,"[2]; in the presence of Ouabain, especially at higher concentrations of GABA (FIGS. 2B vs 2C)",substantially more PGI2 release
same,Relationship between PGI2 release and AII presence,"[3]; pregnant systemic circuit, various GABA levels, compared with uterine circuit (FIG. 3B)",substantially inverted
same,"PGI2 release in the presence of AII, endothelium removed","[3]; pregnant systemic vessels, endothelium removed (FIG. 6)",increased
same,Effect of presence or absence of AII on PGI2 release,"[4]; pregnant uterine arteries, GABA provided, without taurine, various levels of Ouabain (FIG. 1A)",negligible effect on PGI2 release
same,PGI2 release on further addition of AII,"[4]; pregnant uterine arteries, bicuculine and GABA present (FIG. 5B col. 4)",even further decreased PGI2
same,PGI2 release with versus without AII,"[4]; pregnant uterine circuit, most levels of GABA, no Taurine, no Ouabain (FIG. 3A)",more PGI2 is released in the presence of AII
same,"PGI2 release in the presence of AII, endothelium removed","[4]; pregnant uterine vessels, endothelium removed (FIG. 6)",reduced
